# Molecular target: T1, MAT2A (Homo sapiens, UniProt P31153)
# T1 construct: His6; made in house; host or cells: SF9 insect cells
# Test: MAT2A biochemical assay (colorimetric inorganic phosphate detection, PiColorLock)
# Details: recombinant His6-tagged MAT2A 1 μg/ml; 60 minutes preincubation at 25° C.; L-Met 80 μM, ATP 100 μM; 60 minutes reaction; read at 623 nm; read-out: MAT2A Inhibition Score
# Outline: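 Colorimetric malachite green readout of phosphate released when MAT2A turns over L-Met and ATP, after 60 min at room temperature. Enzyme: SF9-expressed His6-tagged MAT2A at 1 μg/ml. Buffer: Tris pH 8.0, 50 mM KCl, 15 mM MgCl2, 300 uM EDTA, 0.005% BSA. Compounds tested as ten-point three-fold dilutions.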
# T1 sequence (P31153 whole entry): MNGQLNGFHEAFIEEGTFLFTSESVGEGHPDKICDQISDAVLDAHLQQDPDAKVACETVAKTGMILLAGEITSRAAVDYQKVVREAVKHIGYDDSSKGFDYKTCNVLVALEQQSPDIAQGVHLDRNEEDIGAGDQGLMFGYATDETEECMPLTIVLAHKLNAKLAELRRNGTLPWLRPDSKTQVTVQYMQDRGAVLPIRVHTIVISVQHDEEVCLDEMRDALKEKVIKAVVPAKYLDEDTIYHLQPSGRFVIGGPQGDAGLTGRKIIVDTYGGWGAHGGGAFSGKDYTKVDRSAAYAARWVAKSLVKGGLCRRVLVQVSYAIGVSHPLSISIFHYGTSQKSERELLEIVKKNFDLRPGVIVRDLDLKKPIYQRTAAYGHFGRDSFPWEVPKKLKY
row,Structure (SMILES),IC50 [µM]
1,"COc1ccc(-c2c(CNC(=O)[C@@H](N)C(C)C)[nH]c3c(-c4ccccc4)c(-c4ccccc4)nn3c2=O)cc1 [Compound 340, (S)-2-amino-N-((6-(4-methoxyphenyl)-7-oxo-2,3-diphenyl-4,7-dihydropyrazolo[1,5-a]pyrimidin-5-yl)methyl)-3-methylbutanamide]",0.1 to 1
2,"Cc1[nH]c2c(-c3ccccc3)c(-c3ccc(Cl)cc3)nn2c(=O)c1-c1ccc2ncccc2c1 [Compound 347, 2-(4-chlorophenyl)-5-methyl-3-phenyl-6-(quinolin-6-yl)pyrazolo[1,5-a]pyrimidin-7(4H)-one]",1 to 10
3,"Cc1[nH]c2c(N3CCC(F)(F)CC3)c(-c3ccccc3)nn2c(=O)c1-c1ccc2ncccc2c1 [Compound 207, 3-(4,4-difluoropiperidin-1-yl)-5-methyl-2-phenyl-6-(quinolin-6-yl)pyrazolo[1,5-a]pyrimidin-7(4H)-one]",< 0.1
4,"COc1ccc(-c2c(C)[nH]c3c(C4=CCCCC4)c(-c4ccccc4)nn3c2=O)cc1 [Compound 212, 3-(cyclohex-1-en-1-yl)-6-(4-methoxyphenyl)-5-methyl-2-phenylpyrazolo[1,5-a]pyrimidin-7(4H)-one]",< 0.1
5,"Cc1[nH]c2c(N3CCCCC3)c(-c3ccccc3)nn2c(=O)c1-c1ccc2[nH]cnc2c1 [Compound 267, 6-(1H-benzo[d]imidazol-5-yl)-5-methyl-2-phenyl-3-(piperidin-1-yl)pyrazolo[1,5-a]pyrimidin-7(4H)-one]",< 0.1
6,"O=c1c(-c2ccc(O)cc2)c(Nc2cnccn2)[nH]c2c(C3=CCCCC3)c(-c3ccccc3)nn12 [Compound 194, 3-cyclohexenyl-6-(4-hydroxyphenyl)-2-phenyl-5-(pyrazin-2-ylamino)pyrazolo[1,5-a]pyrimidin-7(4H)-one]",< 0.1
7,"NCc1[nH]c2c(-c3ccccc3)c(-c3ccccc3)nn2c(=O)c1-c1ccc2ncccc2c1 [Compound 224, 5-(aminomethyl)-2,3-diphenyl-6-(quinolin-6-yl)pyrazolo[1,5-a]pyrimidin-7(4H)-one]",< 0.1
8,"Cc1[nH]c2c(C3=CCCCC3)c(-c3ccccc3)nn2c(=O)c1-c1ccc2nccnc2c1 [Compound 208, 3-(cyclohex-1-en-1-yl)-5-methyl-2-phenyl-6-(quinoxalin-6-yl)pyrazolo[1,5-a]pyrimidin-7(4H)-one]",< 0.1
9,"O=c1c(-c2ccc3nccnc3c2)c(CO)[nH]c2c(C3=CCCCC3)c(-c3ccccc3)nn12 [Compound 231, 3-(cyclohex-1-en-1-yl)-5-(hydroxymethyl)-2-phenyl-6-(quinoxalin-6-yl)pyrazolo[1,5-a]pyrimidin-7(4H)-one]",< 0.1

# The next lines start with the values.
row,IC50 [µM],Structure (SMILES)
1,< 0.1,"COc1cnc2ccc(-c3c(C)[nH]c4c(-c5ccccc5)c(-c5ccccc5)nn4c3=O)cc2n1 [Compound 254, 6-(3-methoxy-quinoxalin-6-yl)-5-methyl-2,3-diphenylpyrazolo[1,5-a]-pyrimidin-7(4H)-one]"
2,< 0.1,"COc1ccc(-c2c(C)[nH]c3c(C4=CCCOC4)c(-c4ccccc4)nn3c2=O)cc1 [Compound 219, 3-(5,6-dihydro-2H-pyran-3-yl)-6-(4-methoxyphenyl)-5-methyl-2-phenylpyrazolo[1,5-a]pyrimidin-7(4H)-one]"
3,< 0.1,"O=c1c(-c2ccc3ncccc3c2)c(Nc2ccncn2)[nH]c2c(-c3ccccc3)c(-c3ccccc3)nn12 [Compound 169, 2,3-diphenyl-5-(pyrimidin-4-ylamino)-6-(quinolin-6-yl)pyrazolo[1,5-a]pyrimidin-7(4H)-one]"
4,< 0.1,"COc1ccc(-c2c(Nc3cn[nH]n3)[nH]c3c(-c4ccccc4)c(-c4ccccc4)nn3c2=O)cc1 [Compound 185, 5-((2H-1,2,3-triazol-4-yl)amino)-6-(4-methoxyphenyl)-2,3-diphenylpyrazolo[1,5-a]pyrimidin-7(4H)-one]"
5,< 0.1,"COc1ccc(-c2c(NC3=NCCS3)[nH]c3c(-c4ccccc4)c(-c4ccccc4)nn3c2=O)cc1 [Compound 143, 5-((4,5-dihydrothiazol-2-yl)amino)-6-(4-methoxyphenyl)-2,3-diphenylpyrazolo[1,5-a]pyrimidin-7(4H)-one]"
6,< 0.1,"COc1ccc(-c2c(C)[nH]c3c(N4CCC(F)(F)C4)c(-c4ccccc4)nn3c2=O)cc1 [Compound 272, 3-(3,3-difluoropyrrolidin-1-yl)-6-(4-methoxyphenyl)-5-methyl-2-phenylpyrazolo[1,5-a]pyrimidin-7(4H)-one]"

# — patent US10800782B2, “Inhibitors of cellular metabolic processes” (Agios Pharmaceuticals, Inc., priority 2016, dated 2020)
